We go through 16 compounds from US5541163A, “Renin inhibiting N-(2-amino-2-oxoethyl)butanediamide derivatives” (Bio-Mega/Boehringer Ingelheim Research Inc., priority 1993, dated 1996).

The assay addresses T1, human renin (Homo sapiens, UniProt P00797).
T1 construct: A human plasma pool is used as the source of both the substrate (angiotensinogen) and the enzyme (renin); from tissue; host or cells: human plasma pool
T1 sequence (P00797 67-406): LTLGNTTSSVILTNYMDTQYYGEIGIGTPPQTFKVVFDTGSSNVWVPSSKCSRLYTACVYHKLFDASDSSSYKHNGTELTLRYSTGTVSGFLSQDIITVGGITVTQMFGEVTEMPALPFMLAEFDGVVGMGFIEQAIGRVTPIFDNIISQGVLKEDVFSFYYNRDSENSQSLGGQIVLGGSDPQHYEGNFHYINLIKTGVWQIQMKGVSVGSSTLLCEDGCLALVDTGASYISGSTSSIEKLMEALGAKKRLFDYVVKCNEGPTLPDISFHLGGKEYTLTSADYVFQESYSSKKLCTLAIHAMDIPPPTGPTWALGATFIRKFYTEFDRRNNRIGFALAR
The assay can be described thus: Plasma renin assay (inhibition of human renin, angiotensin I by RIA). In kind it is biochemical. The following applies: human plasma pool, pH 6.0, 2 h incubation at 37°. In outline:
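Pooled human plasma supplies both renin and angiotensinogen; inhibitor in MES/1% HSA buffer (1% DMSO final) incubated 2 h at 37° at pH 6.0. Angiotensin I generated quantified by radioimmunoassay, inhibition relative to no-inhibitor control, IC50 by nonlinear regression.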
In general, IC50 refers to the concentration at which inhibition is half-maximal. As to `CC(C)C[C@H](O)[C@H](O)[C@H](CC1CCCCC1)NC(=O)[C@@H](CC(=O)N(CC(=O)N(C)C)CC1CCCCC1)Cc1nccs1` [Compound 37, N^4-(cyclohexylmethyl)-N^4-[2-(dimethylamino)-2-oxoethyl]-N^1-[1(S)-(cyclohexylmethyl)-2(R),3(S)-dihydroxy-5-methylhexyl]-2(S)-(2-Thiazolylmethyl)butanediamide], the midpoint of inhibition, the IC50, lay at 1.6 nM. Regarding `CC(C)C[C@H](O)[C@H](O)[C@H](CC1CCCCC1)NC(=O)[C@@H](CC(=O)N(CC(=O)N(C)CCN(C)C(=O)N1CCOCC1)CC1CCCCC1)Cc1csc(N)n1` [Compound 83, N^4-(cyclohexylmethyl)-N^4 -{2-{methyl{2-[methyl(morpholinocarbonyl)-amino]ethyl}amino}-2-oxoethyl}-N^1-[1(S)-(cyclohexylmethyl)-2(R),3(S)-dihydroxy-5-methylhexyl]-2(R)-[(2-amino-4-thiazolyl)methyl]butanediamide], the IC50 is 0.35 nM. Next, `CN(CCc1ccccn1)C(=O)CN(CC1CCCCC1)C(=O)C[C@@H](Cc1csc(N)n1)C(=O)N[C@@H](CC1CCCCC1)[C@@H](O)CSc1nnnn1C` [Compound 65, N^4-(cyclohexylmethyl)-N^4 -{2-{methyl-[2-(2-pyridinyl)ethyl]amino}-2-oxoethyl}-N^1 -{1(S)-(cyclohexylmethyl)-2(R)-hydroxy-3-[(l-methyl-1H-tetrazol-5-yl)thio]propyl}-2(R)-[(2-amino-4-thiazolyl)methyl]-butanediamide]: 45 nM; `CC(C)C[C@H](O)[C@H](O)[C@H](CC1CCCCC1)NC(=O)[C@@H](CC(=O)N(CC(=O)N(C)C)[C@@H](C)c1ccccc1)Cc1cscn1` [Compound 30, N^4-[2-(dimethylamino)-2-oxoethyl]-N^4-[1(S)-phenylethyl]-N^1-[1(S)-(cyclohexylmethyl)-2(R),3(S)-dihydroxy-5-methylhexyl]-2(R)-(4-thiazolylmethyl)butanediamide]: 2.5 nM; `CC(C)C[C@H](O)[C@H](O)[C@H](CC1CCCCC1)NC(=O)[C@@H](CC(=O)N(CC(=O)N(C)C)CC1CCCC1)Cc1csc(N)n1` [Compound 85, N^4-(cyclopentylmethyl)-N^4-[2-(dimethylamino)-2-oxoethyl]-N^1-[1(S)-(cyclohexylmethyl)-2(R),3(S)-dihydroxy-5-methylhexyl]-2(R)-[(2-amino-4-thiazolyl)methyl]butanediamide]: 1 nM. With `CC(C)C[C@H](O)[C@H](O)[C@H](CC1CCCCC1)NC(=O)[C@@H](CC(=O)N(CC(=O)N1CCOCC1)CC1CCCCC1)Cc1cccnc1` [Compound 59, N^4-(cyclohexylmethyl)-N^4-(2-morpholino-2-oxoethyl)-N^1-[1(S)-(cyclohexylmethyl)-2(R),3(S)-dihydroxy-5-methylhexyl]-2(R)-(3-pyridinylmethyl)butanediamide], half-maximal inhibition (IC50) was put at 10 nM.

`CC(C)C[C@H](O)[C@H](O)[C@H](CC1CCCCC1)NC(=O)[C@@H](CC(=O)N(CC(=O)N(C)CCc1ccccn1)Cc1ccccc1)Cc1cscn1` [Compound 53, N^4-benzyl-N^4 -{2-{methyl[2-(2-pyridinyl)ethyl]amino}-2-oxoethyl}-N^1-[1(S)-(cyclohexylmethyl)-2(R),3(S)-dihydroxy-5-methylhexyl]-2(R)-(4-thiazolylmethyl)butanediamide] showed an IC50 of 2.5 nM. The figure for `CNC(=O)CN(Cc1ccccc1)C(=O)C[C@@H](CC1CC1)C(=O)N[C@@H](CC1CCCCC1)[C@@H](O)[C@@H](O)CC(C)C` [Compound 6, N^4-benzyl-N^4-[2-(methylamino)-2-oxoethyl]-N^1-[1(S)-(cyclohexylmethyl)-2(R),3(S)-dihydroxy-5-methylhexyl]-2(R)-(cyclopropylmethyl)butanediamide] is 350 nM; for `CC(C)C[C@H](O)[C@H](O)[C@H](CC1CCCCC1)NC(=O)[C@@H](CC(=O)N(CC(=O)N(C)C)CC1CCCCC1)CC1CC1` [Compound 31, N^4-(cyclohexylmethyl)-N^4-(2-(dimethylamino)-2-oxoethyl]-N^1-[1(S)-(cyclohexylmethyl)-2(R),3(S)-dihydroxy-5-methylhexyl]-2(R)-(cyclopropylmethyl)butanediamide] it is 13 nM; for `Cc1cc(C)cc(CN(CC(=O)N(C)C)C(=O)C[C@@H](Cc2csc(N)n2)C(=O)N[C@@H](CC2CCCCC2)[C@@H](O)[C@@H](O)CC(C)C)c1` [Compound 73, N^4-[2-(dimethylamino)-2-oxoethyl]-N^4-[(3,5-dimethylphenyl)methyl]-N^1-[1(S)-(cyclohexylmethyl)-2(R),3(S)-dihydroxy-5-methylhexyl]-2(R)-[(2-amino-4-thiazolyl)methyl]butanediamide] it is 3 nM.

`CC(C)C[C@H](O)[C@H](O)[C@H](CC1CCCCC1)NC(=O)[C@@H](CC(=O)N(CC(=O)N(C)CCc1ccccn1)Cc1cccs1)Cc1csc(N)n1` [Compound 72, N^4 -{2-{methyl[2-(2-pyridinyl)ethyl]-amino}-2-oxoethyl}-N^4-(2-thienylmethyl)-N^1-[1(S)-(cyclohexylmethyl)-2(R),3(S)-dihydroxy-5-methylhexyl]-2(R)-[(2-amino-4-thiazolyl)methyl]-butanediamide] came in with an IC50 of 2 nM.

Turning to `CC(C)C[C@H](O)[C@H](O)[C@H](CC1CCCCC1)NC(=O)[C@@H](CC(=O)N(CC(=O)N(C)C)CC1CC2CCC1C2)Cc1cscn1` (mixture of isomers) [Compound 56, N^4 -{{1(S),2(R),4(S)-and 1(R),2(S),4(R)-{bicyclo[2.2.1]hept-2-yl}methyl}-N^4-[2-(dimethylamino)-2-oxoethyl]-N^1-[1(S)-(cyclohexylmethyl)-2(R),3(S)-dihydroxy-5-methylhexyl]-2(R)-(4-thiazolylmethyl)butanediamide], the IC50 turned out to be 2 nM. Next, `CC(C)C[C@H](O)[C@H](O)[C@H](CC1CCCCC1)NC(=O)[C@@H](CC(=O)N(CC(=O)N(C)C)CC1CCCCC1)Cc1cscn1` [Compound 36, N^4-(cyclohexylmethyl)-N^4-[2-(dimethylamino)-2-oxoethyl]-N^1-[1(S)-(cyclohexylmethyl)-2(R),3(S)-dihydroxy-5-methylhexyl]-2(R)-(4-thiazolylmethyl)butanediamide]: 1.5 nM; `CC(C)C[C@H](O)[C@H](O)[C@H](CC1CCCCC1)NC(=O)[C@@H](CC(=O)N(CC(=O)N(C)C)Cc1ccccn1)Cc1csc(N)n1` [Compound 64, N^4-[2-(dimethylamino)-2-oxoethyl]-N^4-(2-pyridinylmethyl)-N^1-[1(S)-(cyclohexylmethyl)-2(R),3(S)-dihydroxy-5-methylhexyl]-2(R)-[(2-amino-4-thiazolyl)methyl]-butanediamide]: 10 nM; `CCN(CC)C(=O)CN(Cc1ccccc1)C(=O)C[C@@H](CC1CC1)C(=O)N[C@@H](CC1CCCCC1)[C@@H](O)[C@@H](O)CC(C)C` [Compound 11, N^4-benzyl-N^4-[2-(diethylamino)-2-oxoethyl]-N^1-[1(S)-(cyclohexylmethyl)-2(R),3(S)-dihydroxy-5-methylhexyl]-2(R)-(cyclopropylmethyl)-butanediamide]: 140 nM. The figure for `CC(C)C[C@H](O)[C@H](O)[C@H](CC1CCCCC1)NC(=O)[C@@H](CC(=O)N(CC(=O)N(C)C)Cc1ccccc1)Cc1csc(N)n1` [Compound 52, N^4-benzyl-N^1-[2-(dimethylamino)-2-oxoethyl)-N^1-[1(S)-(cyclohexylmethyl)-2(R),3(S)-dihydroxy-5-methylhexyl]-2(R)-[(2-amino-4-thiazolyl)-methyl]butanediamide] is 3 nM.
